The values that follow come from BindingDB's records for doi:10.1021/jm960594+ (Nippon Zoki Pharmaceutical, 1997).

In this test the target is T1, Aldo-keto reductase family 1 member A1 (Rattus norvegicus, UniProt P51635).
T1 sequence (P51635 whole entry): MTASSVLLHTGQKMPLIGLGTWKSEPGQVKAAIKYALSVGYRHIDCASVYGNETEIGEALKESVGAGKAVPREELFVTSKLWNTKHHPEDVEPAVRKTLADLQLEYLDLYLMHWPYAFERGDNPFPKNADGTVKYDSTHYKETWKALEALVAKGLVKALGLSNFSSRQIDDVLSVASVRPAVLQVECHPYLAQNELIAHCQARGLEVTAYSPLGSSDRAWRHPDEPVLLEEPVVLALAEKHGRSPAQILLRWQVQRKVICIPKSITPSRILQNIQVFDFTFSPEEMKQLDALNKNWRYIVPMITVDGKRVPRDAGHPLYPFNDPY
The test is described as follows: In vitro inhibitory activity against rat kidney aldehyde reductase(ALR).

Turning to `O=C(O)Cn1c(O)c(O)n(Cc2cccc([N+](=O)[O-])c2)c1=O`, the IC50 (in general, the midpoint of a concentration-inhibition curve) was above 100 µM. In turn, `O=C(O)Cn1c(=O)cc(O)n(Cc2cccc([N+](=O)[O-])c2)c1=O` [[3-(3-Nitro-benzyl)-2,4,6-trioxo-tetrahydro-pyrimidin-1-yl]-acetic acid] registered an IC50 above 100 µM. The same measure for `O=C(O)Cn1cc(O)n(Cc2cccc([N+](=O)[O-])c2)c1=O` [[3-(3-Nitro-benzyl)-2,4-dioxo-imidazolidin-1-yl]-acetic acid]: above 100 µM; for `O=C(O)Cn1c(O)cn(Cc2cccc([N+](=O)[O-])c2)c1=O` [[3-(3-Nitro-benzyl)-2,5-dioxo-imidazolidin-1-yl]-acetic acid]: above 100 µM.
